Measured values published in publication PMC9115767 (European journal of medicinal chemistry, 2021).
Read-outs that look alike come from different tables or passages of the source.

Columns and labels:
HIV-2 ROD = assay: microbe, parasite or virus in culture; type: cell-based
HIV-1 IIIB = type: cell-based
in vitro = conditions: human, microsomes
[1] = selectivity index, ratio CC50/EC50, HIV-2 ROD
[2] = selectivity index, ratio CC50/EC50, HIV-1 IIIB

Structure (SMILES)	SI HIV ROD (HIV-2 ROD; [1])	SI HIV ROD (HIV-2 ROD)	other results
COc1ccc(N(C)C(=O)[C@H](Cc2ccccc2)NC(=O)CN2CCNCC2=O)cc1 [Q-b2, (S)–N-(4-methoxyphenyl)-N-methyl-2-(2-(2-oxopiperazin-1-yl)acetamido)-3-phenylpropanamide]	>8.94		SI HIV IIIB (HIV-1 IIIB; [2]): >3.30
COc1ccc(N(C)C(=O)[C@H](Cc2cc(F)cc(F)c2)NC(=O)CN2CCN(CC(=O)N[C@@H](Cc3ccccc3)C(=O)N(C)c3ccccc3)CC2=O)cc1 [Q-c6, (S)-3-(3,5-difluorophenyl)-N-(4-methoxyphenyl)-N-methyl-2-(2-(4-(2-(((S)-1-(methyl(phenyl)amino)-1-oxo-3-phenylpropan-2-yl)amino)-2-oxoethyl)-2-oxopiperazin-1-yl)acetamido)propenamide]		<1.00	
COc1ccc(N(C)C(=O)[C@H](Cc2ccccc2)NC(=O)CN2CCN(CC(=O)N[C@@H](Cc3ccccc3)C(=O)N(C)c3ccccc3)CC2=O)cc1 [Q-c3, (S)–N-(4-methoxyphenyl)-N-methyl-2-(2-(4-(2-(((S)-1-(methyl(phenyl)amino)-1-oxo-3-phenylpropan-2-yl)amino)-2-oxoethyl)-2-oxopiperazin-1-yl)acetamido)-3-phenylpropanamid]	<1.00		SI HIV IIIB (HIV-1 IIIB; [2]): <1.00
COc1ccc(N(C)C(=O)[C@H](Cc2ccccc2)NC(=O)CN2CCN(CC(=O)N[C@@H](Cc3ccccc3)C(=O)N(C)c3ccccc3)C(=O)C2)cc1 [Q-c9, (S)–N-(4-methoxyphenyl)-N-methyl-2-(2-(4-(2-(((S)-1-(methyl(phenyl)amino)-1-oxo-3-phenylpropan-2-yl)amino)-2-oxoethyl)-3-oxopiperazin-1-yl)acetamido)-3-phenylpropanamide]	<1.00		SI HIV IIIB (HIV-1 IIIB; [2]): ≤6.45
COc1ccc(N(C)C(=O)[C@H](Cc2cc(F)cc(F)c2)NC(=O)CN2CC(=O)N(CC(=O)N[C@@H](Cc3cc(F)cc(F)c3)C(=O)N(C)c3ccc(OC)cc3)CC2=O)cc1 [Q-a2, (2S,2S)-22′-((2,2'-(2,5'-dioxopiperazine-1,4-diyl)bis(acetyl))bis(azanediyl)) bis(3-(3,5-di-N-difluorophenyl)-N-(4-methoxyphenyl)-N-methylpropanamide)]			CLint scaled at 3 h, 100 µM (in vitro): 760 mL/min/kg
COc1ccc(N(C)C(=O)[C@H](Cc2cc(F)cc(F)c2)NC(=O)CN2CCN(CC(=O)N[C@@H](Cc3ccccc3)C(=O)N(C)c3ccccc3)C(=O)C2)cc1 [Q-c8, (S)-3-(3,5-difluorophenyl)-N-(4-methoxyphenyl)-N-methyl-2-(2-(4-(2-(((S)-1-(methyl(phenyl)amino)-1-oxo-3-phenylpropan-2-yl)amino)-2-oxoethyl)-3-oxopiperazin-1-yl)acetamido)propenamide]		<1.00	
COc1ccc(N(C)C(=O)[C@H](Cc2ccccc2)NC(=O)CN2CCN(CC(=O)N[C@@H](Cc3cc(F)cc(F)c3)C(=O)N(C)c3ccc(OC)cc3)C(=O)C2)cc1 [Q-c5, (S)-3-(3,5-difluorophenyl)-N-(4-methoxyphenyl)-2-(2-(4-(2-(((S)-1-((4-methoxyphenyl)(methyl)amino)-1-oxo-3-phenylpropan-2-yl)amino)-2-oxoethyl)-2-oxopiperazin-1-yl)acetamido)-N-methyl-propanamide]	<1.00		
COc1ccc(N(C)C(=O)[C@H](Cc2cc(F)cc(F)c2)NC(=O)CN2CCN(CC(=O)N[C@@H](Cc3ccccc3)C(=O)N(C)c3ccc(OC)cc3)C(=O)C2)cc1 [Q-c2, (S)-3-(3,5-difluorophenyl)-N-(4-methoxyphenyl)-2-(2-(4-(2-(((S)-1-((4-methoxyphenyl)(methyl)amino)-1-oxo-3-phenylpropan-2-yl)amino)-2-oxoethyl)-3-oxopiperazin-1-yl)acetamido)-N-methylpropanamide]	<1.00		
CN(C(=O)[C@H](Cc1ccccc1)NC(=O)CN1CCNCC1=O)c1ccccc1 [Q-b1, (S)–N-methyl-2-(2-(2-oxopiperazin-1-yl)acetamido)-N,3-diphenyl propanamide]		>1.19	CC50 (MT-4 cells): > 317 µM; SI HIV IIIB (HIV-1 IIIB): >1.28
COc1ccc(N(C)C(=O)[C@H](Cc2ccccc2)NC(=O)CN2CC(=O)N(CC(=O)N[C@@H](Cc3ccccc3)C(=O)N(C)c3ccc(OC)cc3)CC2=O)cc1 [Q-a1, (2S,2′S)-2,2'-((2,2'-(2,5-dioxopiperazine-1,4-diyl)bis(acetyl))bis(azanediyl)) bis(N-(4-methoxyphenyl)-N-methyl-3-phenylpropanamide)]		<1.00	
COc1ccc(N(C)C(=O)[C@H](Cc2ccccc2)NC(=O)CN2CCN(CC(=O)N[C@@H](Cc3ccccc3)C(=O)N(C)c3ccc(OC)cc3)C(=O)C2)cc1 [Q-c1, (2S,2′S)-2,2'-((2,2'-(2-oxopiperazine-1,4-diyl)bis(acetyl))bis(azanediyl)) bis(N-(4-methoxyphenyl)-N-methyl-3-phenylpropanamide)]		<1.00	SI HIV IIIB (HIV-1 IIIB): ≤4.29
CN(C(=O)[C@H](Cc1ccccc1)NC(=O)CN1CCN(CC(=O)N[C@@H](Cc2ccccc2)C(=O)N(C)c2ccccc2)C(=O)C1)c1ccccc1 [Q-c7, (2S,2′S)-2,2'-((2,2'-(2-oxopiperazine-1,4-diyl)bis(acetyl))bis(azanediyl)) bis(N-methyl-N,3-diphenylpropanamide)]		<1.00	EC50 (HIV-2 ROD; Human immunodeficiency virus 2, MT4, read-out: EC50 HIV ROD): > 32.6 µM; SI HIV IIIB (HIV-1 IIIB): <1.00
COc1ccc(N(C)C(=O)[C@H](Cc2ccccc2)NC(=O)CN2CCN(S(=O)(=O)c3ccc(N)cc3)CC2=O)cc1 [Compound 11l, reference compound]			CLint scaled at 3 h, 100 µM (in vitro): 356 mL/min/kg
